One series is described as follows: Solubility. In kind it is physicochemical.
In series [1] the test system is large-cell lung carcinoma xenograft line LXFL 529 L. As to the kind of experiment: Tumor cell growth inhibition, sulforhodamine B (SRB) assay. It is filed as cell-based, human. The conditions noted are these: LXFL529L; three days incubation, serum containing medium.
Series [2] relates to various tumor cell lines (all). Description: Colony-forming assay, all tumor xenografts. It is filed as cell-based, human. An excerpt:
The compounds according to the inventive Examples show good to excellent anti-tumor activity against various types of tumor cell lines.

A further series deals with LXFL 529L cells. As to the kind of experiment: Cellular uptake into LXFL 529L cells. The note with it: for distribution cellular organelles / distribution cytosol: 2 hours incubation. On the procedure:
The compounds of Examples 1, 6 and 8 and Comparative Examples 1 and 2 were investigated with respect to their ability to penetrate LXFL 529L cells having the passage numbers P23 to P39. The amounts of the substances taken up by the cells are given depending on the concentration of the substance within the incubation medium. The time of incubation was 2 hours in all of the experiments. Furthermore, the distribution of the substance which was taken up by the cells in the cytosol and the cellular organelles (particular) was estimated and is given in the intermediate column of Table 2. Tumor cell growth inhibition was determined by the sulfo-rhodamine B assay (SRB assay) according to Skehan et al., J. Natl. Cancer Institute 82, pages 1107-1112 (1990). Incubation was conducted for three days in serum containing medium. Tumor cell lines tested were a large-cell lung carcinoma xenograft line LXFL 529 L and the mammary carcinoma line MCF-7.

Series [3] concerns mammary carcinoma line MCF-7. As to the kind of experiment: Tumor cell growth inhibition, sulforhodamine B (SRB) assay. In kind it is cell-based, human. The note with it: MCF7; three days incubation, serum containing medium.
Series [4] relates to LXFA526 (lung adenocarcinoma). Description: Colony-forming assay. The note with it: for IC50: read-out: IC50 colony formation. In kind it is cell-based, human.
The subject of another series is PAXF546 (pancreatic). Description: Colony-forming assay. In kind it is cell-based, human. The note with it: for IC50: read-out: IC50 colony formation.
Series [5] has as its system LXFS650 (lung small-cell). Description: Colony-forming assay. It is filed as cell-based, human.
In a further series the test system is HT29X (colon). As to the kind of experiment: Colony-forming assay. In kind it is cell-based, human. The conditions noted are these: for IC50: read-out: IC50 colony formation.
The subject of another series is MCF7X (mammary). Description: Colony-forming assay. It is filed as cell-based, human. The note with it: for IC50: read-out: IC50 colony formation.
The next series relates to MEXF514 (melanoma). Description: Colony-forming assay. It is filed as cell-based, human. The note with it: for IC50: read-out: IC50 colony formation.
A further series deals with 1220 (renal). Description: Colony-forming assay. In kind it is cell-based, human. The note with it: renal 1220.
Series [6] deals with human tumor xenograft LXFL 529. Description: In vivo testing in nude mice bearing subcutaneous tumor xenograft. Here is the method: Compound of Examples 1, 4, 6, 8, 9 and 10 were subjected to in vivo testing in nude mice bearing subcutaneously growing human tumor xenograft LXFL 529. The indigoid bisindole derivatives were applied intraperitoneally to the animals in doses and according to the schedule as described in Table 4.
The experiments were run for 21 or 28 days. Anti-tumor activity was evaluated comparing the median tumor volume relative to control, expressed as %T/C, wherein T is the test group and C the vehicle control group. In Table 4, anti-tumor activity is given according to an activity rate scale.

In another series the test system is PAXF736 (pancreatic). Description: Colony-forming assay. In kind it is cell-based, human. The note with it: for IC50: read-out: IC50 colony formation.
In another series the test system is OVXF1353 (ovarian). As to the kind of experiment: Colony-forming assay. In kind it is cell-based, human. The conditions noted are these: for IC50: read-out: IC50 colony formation. Here is the method:
The anti-tumor activity of the compounds was evaluated via a colony-forming-assay as described e.g. by D. P. Berger et al. in Annals of Oncology 1, pages 333-341 (1 990), “The clonongenic assay with human tumor xenografts, evaluation, predictive values and application for drug screening”.
The experiments were conducted using various tumor cell lines, in particular mammary carcinoma (MAXF), lung adenocarcinoma (LXFA), large-cell lung carcinoma (LXFL), small-cell lung carcinoma (LXFS), colon carcinoma (CXF), melanoma (MEXF), pancreatic carcinoma (PAXF), renal carcinoma (RXF), ovarian carcinoma (OVXF) and bladder carcinoma (BXF).

In the next series the test system is MX1 (mammary). Description: Colony-forming assay. In kind it is cell-based, human.
The subject of a further series is MEXF515LX (melanoma). As to the kind of experiment: Colony-forming assay. In kind it is cell-based, human. The conditions noted are these: for IC50: read-out: IC50 colony formation.
Another series relates to CXF280 (colon). Description: Colony-forming assay. In kind it is cell-based, human. The conditions noted are these: for IC50: read-out: IC50 colony formation.
The subject of the next series is BXF1301 (bladder). As to the kind of experiment: Colony-forming assay. It is filed as cell-based, human. The conditions noted are these: for IC50: read-out: IC50 colony formation.
Series [7] has as its system LXFA289 (lung adenocarcinoma). As to the kind of experiment: Colony-forming assay. It is filed as cell-based, human. The conditions noted are these: for IC50: read-out: IC50 colony formation.
For a further series, the system named is MEXF989 (melanoma). Description: Colony-forming assay. In kind it is cell-based, human.
Setting [8] is: read-out: IC50 colony formation.
The mark [9] stands for this setting: type printed pancreatic, xenograft printed HT29X.
The mark [10] stands for this setting: 100 mg/kg/day i.p., days 1, 4, 8, 11, 15, 18, 22.
Setting [11] is: 300 mg/kg/day i.p., days 1, 4, 8, 11, 15, 18, 22.
The mark [12] stands for this setting: concentration of incubation 10 μM.
Where [13] appears, read: concentration of incubation 20 μM.

The structures appear in SMILES notation. Read-outs that look alike come from different tables or passages of the source.

Turning to `O=C1Nc2ccc(S(=O)(=O)O)cc2C1=C1Nc2ccccc2C1=O` [Comparative Example 1, Indirubin-5-sulfonic acid, reference compound], the “solubility in physiological solutions (in words)” value in the series “Solubility” is “well soluble in physiological solutions”. The IC50 in series [1] was > 100 µM; in [2] (tumor xenograft type (all), read-out: IC50 colony formation) it was > 30 µM; in [3], > 100 µM. Moreover, in [2] (tumor xenograft type (all)), the IC70 colony formation was >30.0 µM. The “anti-tumor activity (in words)” value in [2] (various types of tumor cell lines) is listed as “does not exhibit an anti-tumor activity against any of the tumor lines”. Further, the “uptake by the tumor cells (in words)” value with LXFL 529L cells (LXFL 529L cells) is on record as “essentially not taken up by the cells”.

Consider `O=C1Nc2ccc(S(=O)(=O)O)cc2C1=C1Nc2ccccc2C1=NO` [Comparative Example 2, Indirubin-3′-oxime-5-sulfonic acid, reference compound], for which the “solubility in physiological solutions (in words)” value in “Solubility” was “well soluble in physiological solutions”. For the same molecule, the IC50 in [1] and in series [3] was > 100 µM each time. Also, the “uptake by the tumor cells (in words)” value with LXFL 529L cells (LXFL 529L cells) was “essentially not taken up by the cells”.

`O=C1Nc2ccc(I)cc2/C1=C1/Nc2ccccc2C1=O` [Example 2, 5-Iodoindirubin]: the IC70 colony formation in series [4] is 23 µM; in the series on PAXF546 (pancreatic), >30 µM; in series [5], 24.5 µM; in the series on HT29X (colon) (colon HT29X), >30 µM; with MCF7X (mammary), 2.5 µM. Moreover, the concentration for half-maximal inhibition (IC50) is 8 µM in series [4]; 18 µM in the series on PAXF546 (pancreatic); 13.7 µM in series [5] (setting [8]); 6.3 µM in the series on HT29X (colon) (colon HT29X); < 1 µM in the series with MCF7X (mammary).

In the case of `O=C1Nc2ccc(Br)cc2/C1=C1/Nc2ccccc2C1=O` [Example 3, 5-Bromoindirubin], the IC70 colony formation in series [4] was 14.4 µM; in the series on HT29X (colon) (colon HT29X), 17.3 µM; in the series on HT29X (colon) (setting [9]) it was >30 µM; with MCF7X (mammary) it was <1.0 µM; in the series on MEXF514 (melanoma) it was 8.0 µM. Further, the IC50 in [4] was 2.3 µM; with HT29X (colon) (colon HT29X), < 1 µM; in the series on HT29X (colon) (setting [9]) it was 13.2 µM; in the series with MCF7X (mammary), < 1 µM; in the series on MEXF514 (melanoma) it was 3.4 µM.

Turning to `O=C1Nc2ccc(Cl)cc2/C1=C1/Nc2ccccc2C1=O` [Example 4, 5-Chloroindirubin], the IC70 colony formation in the series on PAXF546 (pancreatic) was >30 µM; with HT29X (colon) (colon HT29X), 17.3 µM; in the series with 1220 (renal) it was 24.7 µM; in the series on PAXF736 (pancreatic), 8.0 µM; in the series on MCF7X (mammary), <1.0 µM; with MEXF514 (melanoma) it was 26.0 µM. Besides, the half-maximal inhibitory concentration (IC50) was 4.6 µM in the series with PAXF546 (pancreatic); < 1 µM in the series with HT29X (colon) (colon HT29X); 11.2 µM in the series on 1220 (renal) (setting [8]); 3.2 µM with PAXF736 (pancreatic); < 1 µM in the series with MCF7X (mammary); 17.1 µM with MEXF514 (melanoma). Also, the activity rating entry in series [6] (100 mg/kg/day i.p., days 1-5) was “++ (tumor stasis T/C ≦ 25%)”; in [6] (300 mg/kg/day i.p., days 1-5), “++ (tumor stasis T/C ≦ 25%)”. Also, in series [6] (LXFL 529/17, i.p., nude mice, FIG. 1), the “tumor growth (relative tumor volume) compared to the vehicle control (in words)” value is reported as “significantly inhibited the tumor growth”.

Take `O=C1Nc2ccc(F)cc2C1=C1Nc2ccccc2C1=O` [Example 5, 5-Fluoroindirubin]: the values for the IC70 colony formation in the series with OVXF1353 (ovarian), in the series with PAXF736 (pancreatic) and in the series with MCF7X (mammary) were 6.1 µM, 1.1 µM and <1.0 µM, respectively. Besides, the half-inhibitory concentration (IC50) in the series on OVXF1353 (ovarian), in the series on PAXF736 (pancreatic) and in the series on MCF7X (mammary) was < 1 µM throughout.

On to `O=C1Nc2ccc([N+](=O)[O-])cc2C1=C1Nc2ccccc2C1=O` [Example 7, 5-Nitroindirubin], for which, in the series on MCF7X (mammary), the IC70 colony formation is 15.1 µM and the IC50 was < 1 µM. In the series with MEXF514 (melanoma), the IC70 colony formation is >10.0 µM and the IC50 came out at 4.9 µM.

In the case of `O=C1Nc2ccccc2/C1=C1/Nc2ccccc2/C1=N\O` [Example 8, Indirubin-3′-oxime], the IC70 colony formation with MX1 (mammary) amounted to 9.2 µM; in the series on MEXF515LX (melanoma), 5.7 µM; with CXF280 (colon) it was 12.6 µM; in the series on BXF1301 (bladder) it was 16.1 µM; in series [7] it was 3.4 µM; in the series on MEXF989 (melanoma), 2.6 µM. For the same molecule, the IC50 is 7.7 µM in the series on MX1 (mammary) (setting [8]); 2.8 µM in the series on MEXF515LX (melanoma); 3 ± 0.5 µM in series [1]; 8 µM in the series on CXF280 (colon); 10.6 µM with BXF1301 (bladder); 3.3 ± 0.4 µM in series [3]. Also, the IC50 amounted to 0.9 µM in series [7] and 1 µM with MEXF989 (melanoma) (setting [8]). The activity rating result in [6] (setting [10]) and in series [6] (setting [11]) was “− (inactive T/C > 50%)” each time. The “ability to penetrate the cellular membrane / uptake compared to indirubin (Example 1) (in words)” value with LXFL 529L cells (LXFL 529L cells) is “slightly improved”. Further, the “uptake by the tumor cells (in words)” value in the series on LXFL 529L cells (LXFL 529L cells) was “taken up by the tumor cells”. The values for the distribution cellular organelles in the series on LXFL 529L cells (setting [12]) and in the series with LXFL 529L cells (setting [13]) were 57 ± 14.1% and 56 ± 15.6%, respectively. For the same molecule, the distribution cytosol in the series on LXFL 529L cells (setting [12]) was 43 ± 14.1%; with LXFL 529L cells (setting [13]) it was 44 ± 15.6%.

With `O=C1Nc2ccc(I)cc2/C1=C1/Nc2ccccc2/C1=N\O` [Example 9, 5-Iodoindirubine-3′-oxime], the IC70 colony formation worked out at 4.9 µM in the series with MEXF515LX (melanoma); 16.3 µM in the series with CXF280 (colon); 5.8 µM in the series on BXF1301 (bladder); 0.7 µM in [7]; 10.4 µM with MCF7X (mammary). The IC50 with MEXF515LX (melanoma) came out at 2.6 µM; in the series on CXF280 (colon), 10.7 µM; with BXF1301 (bladder), 4 µM; in series [7], 0.05 µM; with MCF7X (mammary), 2.4 µM. Also, the activity rating entry is “− (inactive T/C > 50%)” in [6] (setting [10]) and “+ (tumor inhibition T/C > 25-50%)” in [6] (setting [11]).

With `O=C1/C(=C2\Nc3ccccc3C2=O)Nc2ccccc21` [Example 11, Indigo], the IC50 is 3.3 µM with HT29X (colon) (Homo sapiens, colon HT29X); 3.9 µM in the series with OVXF1353 (ovarian) (Homo sapiens); 3.5 µM in series [7] (Homo sapiens). The IC70 colony formation in the series on HT29X (colon) (colon HT29X) was found to be 26.1 µM; in the series with OVXF1353 (ovarian), 16.7 µM; in series [7], 12.3 µM.

For the origin of these results see patent US6664285B1, “Use of cell membrane penetrating indigoid bisindole derivatives” (priority 1999, dated 2003).
